Experiment [1] concerns MCF-7 primary breast adenocarcinoma cells. To be noted: for cell proliferation (summary statement): combined experimental findings. Here is the method: The MCF-7 cells were seeded in six-well plates (150,000 cells/well), grown overnight (37° C., 5% CO2) during which they attached to the bottom plate. The cells were then treated with compound D5 (RS5982) at concentrations of 10 μM, 20 μM or 50 μM. In the negative and positive control experiments, the cells were treated with 0.25% DMSO and 1 μM of Paclitaxel, respectively. After 24 h and 48 h of incubation, the cells were pulse-labeled (30 min) with 10 μM of bromodeozyuridine (BrdU; stains actively replicating DNA), collected, and fixed with 95% ethanol. Next, the cells were treated with a BrdU-specific antibody (1:5 dilution, BD Bioscience 347580) and incubated for 1 h at room temperature. The secondary antibody used was AF488 Donkey anti mouse (dilution 1:50), which was incubated for 1 h at room temperature. Total DNA was stained overnight (4° C.) with 2.5 μg/ml of propidium iodide. Fluorescence-activated cell sorting (FACS) analysis next allowed the quantification of cells occurring in various stages of the cell cycle. Specifically, measurements were performed using MACSquant FACS (Miltenyi Biotech), and analysed by FlowJo software (Ashland). The G2/M cell cycle stage was evaluated by DNA content and negativity for BrdU incorporation, to avoid an overlap between G2 and late S-phase. The number of G2/M phase cells were plotted relative to that measured in the presence of 0.25% DMSO at each time point (fold change values=1).

For experiment [2] the test system is unchanged. As to conditions: 10 μM, versus 0.1% DMSO, FIG. 7A-C.
Experiment [3] has the same test system. The protocol: The MCF-7 cells were seeded in six-well plates (150,000 cells/well), grown overnight (37° C., 5% CO2) during which they attached to the bottom plate. The cells were then treated with compound D5 (RS5982) or compound RS6008 at concentrations of 10 μM. 20 μM or 50 μM. In the negative and positive control experiments, the cells were treated with 0.25% DMSO and 1 μM of Paclitaxel, respectively. […] Finally, for each time point, the viable cell counts were plotted relatively to the number of viable cells measured in the presence of 0.25% DMSO.

Experiment [4] deals with Ndc80 kinetochore subcomplex-MT binding (Homo sapiens, UniProt O14777). As to conditions: Ndc80 subcomplex:MTs 5 nM:10 nM; FIG. 3.
Text: Next, the Ndc80 kinetochore subcomplex was bound to AlphaScreen® acceptor beads. In parallel, biotinylated and taxol-stabilised MTs were bound to streptavidin-covered AlphaScreen® donor beads. […] A decrease in light emission is caused by abrogated Ndc80 kinetochore subcomplex-MT binding.
The recombinant His6-tagged Ndc80 kinetochore subcomplex was bound to AlphaScreen® (Amplified Luminescent Proximity Homogeneous Assay Screen) Ni^2+-acceptor beads. In parallel, biotinylated and taxol-stabilised MTs (Cytoskeleton) were bound to streptavidin-covered AlphaScreen® donor beads (Perkin Elmer). […] A decrease in or loss of light emission is caused by a reduced or total loss of Ndc80 kinetochore subcomplex-MT binding.

Structures are written as SMILES. Like-named read-outs stand apart in the source and are kept apart here.

Ndc80 kinetochore subcomplex-MT binding, sequence (O14777 whole entry): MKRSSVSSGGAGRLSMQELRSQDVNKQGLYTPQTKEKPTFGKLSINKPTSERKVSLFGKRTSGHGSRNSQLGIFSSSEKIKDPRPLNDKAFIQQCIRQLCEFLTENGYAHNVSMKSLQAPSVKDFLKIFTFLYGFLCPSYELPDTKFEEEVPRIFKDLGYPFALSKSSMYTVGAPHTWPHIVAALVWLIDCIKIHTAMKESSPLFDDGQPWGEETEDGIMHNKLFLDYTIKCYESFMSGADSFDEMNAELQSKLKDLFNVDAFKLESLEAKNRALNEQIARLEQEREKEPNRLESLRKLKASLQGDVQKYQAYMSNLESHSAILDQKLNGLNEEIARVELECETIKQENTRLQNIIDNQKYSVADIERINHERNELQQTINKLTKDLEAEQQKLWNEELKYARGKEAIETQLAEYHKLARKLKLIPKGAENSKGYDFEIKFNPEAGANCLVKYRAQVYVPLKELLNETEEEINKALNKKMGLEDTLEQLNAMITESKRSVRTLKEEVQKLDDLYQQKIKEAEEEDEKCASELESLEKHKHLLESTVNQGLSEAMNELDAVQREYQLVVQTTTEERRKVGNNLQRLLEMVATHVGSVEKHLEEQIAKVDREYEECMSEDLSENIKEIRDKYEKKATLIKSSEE
Ndc80 kinetochore subcomplex-MT binding, sequence (Q9BZD4 whole entry partner): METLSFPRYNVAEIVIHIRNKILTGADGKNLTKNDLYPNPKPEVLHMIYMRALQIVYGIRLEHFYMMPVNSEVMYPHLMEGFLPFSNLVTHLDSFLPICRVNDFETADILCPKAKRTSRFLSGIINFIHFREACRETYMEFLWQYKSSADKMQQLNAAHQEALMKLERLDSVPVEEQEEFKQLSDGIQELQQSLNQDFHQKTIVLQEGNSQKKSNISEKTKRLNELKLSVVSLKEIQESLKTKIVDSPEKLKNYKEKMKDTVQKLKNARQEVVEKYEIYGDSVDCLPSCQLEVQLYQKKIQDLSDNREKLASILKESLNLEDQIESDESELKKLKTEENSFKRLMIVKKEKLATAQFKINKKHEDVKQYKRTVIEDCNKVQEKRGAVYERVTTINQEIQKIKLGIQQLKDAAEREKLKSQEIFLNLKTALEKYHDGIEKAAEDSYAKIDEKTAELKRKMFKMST
Ndc80 kinetochore subcomplex-MT binding, sequence (Q8NBT2 whole entry partner): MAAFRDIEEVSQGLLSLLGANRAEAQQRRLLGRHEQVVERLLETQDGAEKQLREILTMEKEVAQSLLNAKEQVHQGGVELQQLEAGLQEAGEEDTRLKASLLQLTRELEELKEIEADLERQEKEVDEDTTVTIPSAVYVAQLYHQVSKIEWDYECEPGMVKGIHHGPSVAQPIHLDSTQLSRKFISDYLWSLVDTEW
Ndc80 kinetochore subcomplex-MT binding, sequence (Q9HBM1 whole entry partner): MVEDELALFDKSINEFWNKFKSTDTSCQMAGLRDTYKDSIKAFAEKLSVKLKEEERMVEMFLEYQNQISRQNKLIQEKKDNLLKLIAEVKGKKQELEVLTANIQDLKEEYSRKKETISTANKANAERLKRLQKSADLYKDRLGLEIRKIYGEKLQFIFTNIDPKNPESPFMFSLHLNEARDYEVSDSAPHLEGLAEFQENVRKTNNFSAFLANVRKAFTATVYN

Turning to `Cc1ccc(-c2cc(C(=O)Nc3ccc(C(F)(F)F)cc3C(F)(F)F)c3ccccc3n2)o1` [RS6648, N-(2,4-bis(Trifluoromethyl)phenyl)-2-(5-methylfuran-2-yl) quinoline-4-carboxamide], the “cell proliferation (summary statement)” value in experiment [1] was “delayed cell proliferation”. In experiment [2], the “anomalous kinetochore activity (unbound sister chromatids, lagging chromosomes) compared to control cells” value is given as “increase in anomalous kinetochore activity”.

In the case of `Cc1ccc(NC(=O)c2cc(-c3ccco3)nc3ccccc23)c(C)c1` [RS6008, N-(2,4-Dimethylphenyl)-2-(furan-2-yl) quinoline-4-carboxamide], the cell viability entry in experiment [3] (50 μM, FIG. 6) is given as “strong decrease in cell viability”. Also, the “cell proliferation (summary statement)” value in experiment [1] is “delayed cell proliferation”.

Turning to `Cc1ccc(NC(=O)c2cc(-c3ccc(C)o3)nc3ccccc23)c(C)c1` [D5, N-(2,4-Dimethylphenyl)-2-(5-methylfuran-2-yl) quinoline-4-carboxamide], the cell viability result in experiment [3] (10, 20 or 50 μM, 24, 48, 72 h, relative to 0.25% DMSO, FIG. 4) is “dose (D5)-dependent decrease in cell viability”. The “arrest at mitotic entry (G2/M phase)” value in experiment [1] (10, 20 or 50 μM, 24 and 48 h, relative to 0.25% DMSO, FIG. 5) is on record as “enhanced arrest at mitotic entry (G2/M phase)”. In experiment [1], the “cell proliferation (summary statement)” value is reported as “delayed cell proliferation”. In experiment [4], the “inhibition in the biochemical AlphaScreen binding assay” value was determined as 59.93%. Further, the “anomalous kinetochore activity (unbound sister chromatids, lagging chromosomes) compared to control cells” value in experiment [2] is recorded as “increase in anomalous kinetochore activity”.

For the origin of these results see patent publication US20250074880A1, “NOVEL QUINOLINE DERIVATIVES AND USES THEREOF” (Istituto Europeo di Oncologia S.r.l., priority 2021, published 2025).
